According to patent US11986475B1, “Compositions and methods for treating cancer” (A2A Pharmaceuticals, Inc., priority 2022, dated 2024):

Legend:
HEC-59 = assay: Cell viability assay (SRB or CTG) in HEC-59; format: cell-based; conditions: Homo sapiens, 7 days total, media renewed at day 4, SRB or CTG
Procedure: (§1) Human breast carcinoma cell line, MDA-MB-231 and human endometrial cancer cell line, HEC-59 were purchased from ATCC (American Type Culture Collection; USA). MDA-MB-231 cells were cultured in Dulbecco's modified Eagle's medium (Lonza, NJ, USA), and HEC-59 were grown in Iscove's Modified Dulbecco's Medium (Lonza, NJ, USA), supplemented with 10% fetal bovine serum (FBS, Lonza), 1% non-essential amino acid (NEAA), 2 mM L-glutamine (Sigma Aldrich, MO, USA) and 50 U/ml penicillin/streptomycin (P/S). All cell lines were tested regularly using MycoAlert Mycoplasma Detection Kit (Lonza). The cumulative length of the cells between thawing and use in the experiments was less than 20 passages.
(§2) 4000 cells/well of MDA-MB-231 and HEC-59 cells were seeded in a 96 well plate in 80 μL media/well. Approximately 18 hours later, 3× drug solutions were prepared by serial dilution (100, 10, 5, 1, 0.5, 0.3, 0.1, 0.05, 0.01 μM), and the drug containing media was added to each well with a volume of 40 μL. For MDA-MB-231, 3 days after drug treatment, the SRB or CTG assay was performed. HEC59, the drug containing media was renewed at day 4. After 7 days total, the SRB or CTG assay was performed.

MDA-MB-231 = assay: Cell viability assay (SRB or CTG) in MDA-MB-231; format: cell-based; conditions: Homo sapiens, MDA-MB-231, 72 h, 3 days after drug treatment
Procedure: as §1, §2

SMILES	IC50 (MDA-MB-231) [nM]	IC50 (HEC-59) [nM]
C[C@@H]1CN(c2ncc(F)c(Nc3cc(-c4ccc(OC(F)F)cc4)c[nH]c3=O)n2)C[C@H](C)O1 [Compound 346, 5-(4-(difluoromethoxy)phenyl)-3-((2-((2R,6S)-2,6-dimethylmorpholino)-5-fluoropyrimidin-4-yl)amino)pyridin-2(1H)-one]	1050	784
COc1nnc(Nc2nc(N3C[C@@H](C)O[C@@H](C)C3)ncc2F)cc1-c1ccc(OC(F)F)cc1 [Compound 526, 5-(4-(difluoromethoxy)phenyl)-N-(2-((2R,6S)-2,6-dimethylmorpholino)-5-fluoropyrimidin-4-yl)-6-methoxypyridazin-3-amine]	> 10000	1180
CC(=O)c1nnc(Nc2nc(N3C[C@@H](C)O[C@@H](C)C3)ncc2F)cc1-c1ccc(OC(F)F)cc1 [Compound 580, 1-(4-(4-(difluoromethoxy)phenyl)-6-((2-((2R,6S)-2,6-dimethylmorpholino)-5-fluoropyrimidin-4-yl)amino)pyridazin-3-yl)ethan-1-one]	> 10000	> 10000
COC(=O)c1nnc(Nc2nc(N3C[C@@H](C)O[C@@H](C)C3)ncc2F)cc1-c1ccc(OC(F)F)cc1 [Compound 616, methyl 4-(4-(difluoromethoxy)phenyl)-6-((2-((2R,6S)-2,6-dimethylmorpholino)-5-fluoropyrimidin-4-yl)amino)pyridazine-3-carboxylate]	> 10000	> 10000
CNC(=O)c1nnc(Nc2nc(N3C[C@@H](C)O[C@@H](C)C3)ncc2F)cc1-c1ccc(OC(F)F)cc1 [Compound 634, 4-(4-(difluoromethoxy)phenyl)-6-((2-((2R,6S)-2,6-dimethylmorpholino)-5-fluoropyrimidin-4-yl)amino)-N-methylpyridazine-3-carboxamide]	> 10000	> 10000
Cc1nnc(Nc2nc(N3C[C@@H](C)O[C@@H](C)C3)ncc2F)cc1-c1ccc(OC(F)F)cc1 [Compound 508, 5-(4-(difluoromethoxy)phenyl)-N-(2-((2R,6S)-2,6-dimethylmorpholino)-5-fluoropyrimidin-4-yl)-6-methylpyridazin-3-amine]	> 10000	7260
COc1ncc(-c2ccc(OC(F)F)cc2)cc1Nc1ccnc(N2C[C@@H](C)O[C@@H](C)C2)n1 [Compound 305, N-(5-(4-(difluoromethoxy)phenyl)-2-methoxypyridin-3-yl)-2-((2R,6S)-2,6-dimethylmorpholino)pyrimidin-4-amine]	> 10000	> 10000
CNc1nnc(Nc2nc(N3C[C@@H](C)O[C@@H](C)C3)ncc2F)cc1-c1ccc(OC(F)F)cc1 [Compound 544, 4-(4-(difluoromethoxy)phenyl)-N6-(2-((2R,6S)-2,6-dimethylmorpholino)-5-fluoropyrimidin-4-yl)-N3-methylpyridazine-3,6-diamine]	> 10000	2720
Fc1cnc(N2CCOC3CC32)nc1Nc1cc(-c2ccc(OC(F)F)cc2)cnn1 (stereo not drawn) [Compound 103, N-(2-(2-oxa-5-azabicyclo[4.1.0]heptan-5-yl)-5-fluoropyrimidin-4-yl)-5-(4-(difluoromethoxy)phenyl)pyridazin-3-amine]	> 10000	> 10000
Fc1cnc(N2CCCC2)nc1Nc1cc(-c2ccc(OC(F)F)cc2)cnn1 [Compound 104, 5-(4-(difluoromethoxy)phenyl)-N-(5-fluoro-2-(pyrrolidin-1-yl)pyrimidin-4-yl)pyridazin-3-amine]	345	86
C[C@@H]1CN(c2ncc(F)c(Nc3cc(-c4ccc(OC(F)F)cc4)c(N)nn3)n2)C[C@H](C)O1 [Compound 598, 5-(4-(difluoromethoxy)phenyl)-N3-(2-((2R,6S)-2,6-dimethylmorpholino)-5-fluoropyrimidin-4-yl)pyridazine-3,6-diamine]	805	9850
C[C@@H]1CN(c2nccc(Nc3cc(-c4ccc(OC(F)F)cc4)c[nH]c3=O)n2)C[C@H](C)O1 [Compound 264, 5-(4-(difluoromethoxy)phenyl)-3-((2-((2R,6S)-2,6-dimethylmorpholino)pyrimidin-4-yl)amino)pyridin-2(1H)-one]	202	121
C[C@@H]1CN(c2ncc(F)c(Nc3cc(-c4ccc(OC(F)F)cc4)c(C(=O)O)nn3)n2)C[C@H](C)O1 [Compound 562, 4-(4-(difluoromethoxy)phenyl)-6-((2-((2R,6S)-2,6-dimethylmorpholino)-5-fluoropyrimidin-4-yl)amino)pyridazine-3-carboxylic acid]	> 10000	> 10000

Further lines, with some results ahead:

IC50 (MDA-MB-231) [nM]	SMILES	IC50 (HEC-59) [nM]
84	C[C@@H]1CN(c2ccc(F)c(Nc3cc(-c4ccc(OC(F)F)cc4)cnn3)n2)C[C@H](C)O1 [Compound 223, 5-(4-(difluoromethoxy)phenyl)-N-(6-((2R,6S)-2,6-dimethylmorpholino)-3-fluoropyridin-2-yl)pyridazin-3-amine]	61
1090	C[C@@H]1CN(c2nccc(Nc3cc(-c4ccc(OC(F)F)cc4)cnc3F)n2)C[C@H](C)O1 [Compound 182, N-(5-(4-(difluoromethoxy)phenyl)-2-fluoropyridin-3-yl)-2-((2R,6S)-2,6-dimethylmorpholino)pyrimidin-4-amine]	290
533	C[C@@H]1CN(c2ncc(F)c(Nc3cc(-c4ccc(OC(F)F)cc4)cnn3)n2)C[C@@H](C)O1 [Compound 90, 5-(4-(difluoromethoxy)phenyl)-N-(2-((2R,6R)-2,6-dimethylmorpholino)-5-fluoropyrimidin-4-yl)pyridazin-3-amine]	1100
645	C[C@@H]1CN(c2cc(Nc3cc(-c4ccc(OC(F)F)cc4)cnn3)c(F)cn2)C[C@H](C)O1 [Compound 469, 5-(4-(difluoromethoxy)phenyl)-N-(2-((2R,6S)-2,6-dimethylmorpholino)-5-fluoropyridin-4-yl)pyridazin-3-amine]	1300
794	C[C@@H]1CN(c2cc(Nc3cc(-c4ccc(OC(F)F)cc4)cnn3)ccn2)C[C@H](C)O1 [Compound 428, 5-(4-(difluoromethoxy)phenyl)-N-(2-((2R,6S)-2,6-dimethylmorpholino)pyridin-4-yl)pyridazin-3-amine]	> 10000
181	C[C@@H]1CN(c2nc(F)cc(Nc3cc(-c4ccc(OC(F)F)cc4)cnn3)n2)C[C@H](C)O1 [Compound 131, 5-(4-(difluoromethoxy)phenyl)-N-(2-((2R,6S)-2,6-dimethylmorpholino)-6-fluoropyrimidin-4-yl)pyridazin-3-amine]	142
328	C[C@H]1CN(c2ncc(F)c(Nc3cc(-c4ccc(OC(F)F)cc4)cnn3)n2)C[C@H](C)O1 [Compound 91, 5-(4-(difluoromethoxy)phenyl)-N-(2-((2S,6S)-2,6-dimethylmorpholino)-5-fluoropyrimidin-4-yl)pyridazin-3-amine]	200
> 10000	COc1ncc(-c2ccc(OC(F)F)cc2)cc1Nc1nc(N2C[C@@H](C)O[C@@H](C)C2)ncc1F [Compound 387, N-(5-(4-(difluoromethoxy)phenyl)-2-methoxypyridin-3-yl)-2-((2R,6S)-2,6-dimethylmorpholino)-5-fluoropyrimidin-4-amine]	> 10000
